# Reference: PubChem BioAssay AID2060895 (Molecular Pharmacology Branch, DTP, NCI, 2025)
# System: PDC 899932-113-R3-J6 complex spheroid viability
# Assay: Anticancer human tumor 899932-113-R3-J6-PDC patient-derived melanoma cell line growth inhibition [RAS]
# Conditions: for IC50: curve of first compound; for viability, T/C: stronger effect = lower value
# Text: RAS pathway inhibitors in Combinations in Complex Spheroids
# A high-throughput screen of multi-cell type tumor spheroids was designed to identify active combinations of RAS pathway inhibitors and targeted small molecules. Complex spheroids include a stromal component modeled by human endothelial cells (HUVEC) and fibroblasts modeled by human mesenchymal stem cells (MSCs). The concentration ranges selected for each drug and investigational agent were based upon clinically achievable concentrations if the clinical Cmax of the agent was known.
# Compounds. The drugs and investigational agents: abemaciclib (NSC768073), cobimetinib (NSC768068), divarasib (GDC6063, NSC841802), docetaxel (NSC628503), GDC-1971 (RLY-1971, NSC841576), gemcitabine (NSC613327), inavolisib (NSC800729), ipatasertib (NSC767898), KB-0742 (NSC834161), MRTX-1133 (NSC836407), osimertinib (NSC779217), RMC-4630 (NSC839698), RMC-6236 (NSC851965), RMC-6291 (NSC852671), Ro-3306 (NSC812927), sapanisertib (NSC764658), SN-38 (NSC673596), staurosporine (NSC755774), SY5609 (NSC837396), and tovorafenib (DAY101, NSC766906), were obtained from the National Cancer Institute (NCI) Developmental Therapeutics Program Chemical Repository. The FDA-approved anticancer drug set is available from the NCI Developmental Therapeutics Program. […] The stock solutions were prepared in dimethyl sulfoxide (DMSO, Sigma-Aldrich, St. Louis, MO, cat. D2650) at 800-fold the tested concentration and stored at -70 degrees C prior to their use. All drugs and investigational agents were tested over a range starting from a high concentration at or near the clinical Cmax and decreasing in half-log increments. If the clinical Cmax for an agent had not been determined, the highest concentration tested was 10 microM.
# Cell Culture. All cells were maintained in an incubator at 37 degrees C and 5% CO2 with 95% humidity. The PDC lines were cultured according to standard operating procedures established by the NCI PDMR. All PDCs were thawed and cultured in Matrigel-coated flasks prepared with a working solution of 1X Ham's F-12 nutrient mix, without supplementation (Invitrogen, Waltham, MA, cat. 11765054), 100 U/mL penicillin-streptomycin (Invitrogen, cat. 15140122), and 2.5% Matrigel (Corning Inc., Corning, NY, cat. 354248) for the first three passages. The 362531-283-R-J2-PDC and 782815-120-R-J1-PDC lines were cultured in 6C/Colon 1B media, which includes advanced DMEM/F-12 (Thermo Fisher Scientific, cat. 12634028), 10 mM HEPES (Thermo Fisher Scientific, cat. 15630080), 1X GlutaMAX supplement (Thermo Fisher Scientific, cat. 35050061), 0.1 mg/mL primocin (InvivoGen, San Diego, CA, cat. ant-pm-2), 10% defined fetal bovine serum, heat inactivated (HyClone Laboratories Inc., Logan, UT, cat. SH30070.03HI), 50% L-WRN conditioned media (ATCC, cat. CRL-3276), 1.25 mM N-Acetyl-L-cysteine (Sigma-Aldrich, cat. A9165), 10 mM nicotinamide (Sigma-Aldrich, cat. N0636), 1X B-27 supplement (Thermo Fisher Scientific, cat. 17504044), 1X N-2 supplement (Thermo Fisher Scientific, cat. 17502048), 50 ng/mL human EGF (Thermo Fisher Scientific, cat. PHG0311), and 10 microM Y-27632 dihydrochloride (Tocris Bioscience, cat. 1254). The K12877-001-R-J1-PDC line was cultured in 6I media, which includes all 6C/Colon 1B media plus 10 ng/mL human FGF-10 (PeproTech, cat. 100-26), 1 ng/mL human FGF-2 (PeproTech, cat. 100-18B), 1 µM prostaglandin E2 (Tocris Bioscience, cat. 2296), […] hydrocortisone (Sigma-Aldrich, cat. H4001), and […] bovine insulin (Sigma-Aldrich, cat. I6634). The K86415-001-R-J1-PDC line was cultured in 6D media, which includes all 6C/Colon 1B media components minus the L-WRN conditioned media. The 485176-168-R4-J1-PDC was cultured in PANC media, which includes all 6C/Colon 1B media plus 100 ng/mL human FGF-10 (PeproTech, cat. 100-26), 500 nM SB-431542 (Selleckchem, cat. S1067), and 10 nM gastrin (Tocris Bioscience, cat. 3006). […]
# [1] = second compound 0.0316 µM, first compound 0.0316 µM
# [2] = second compound 0.0316 µM, first compound 0.1 µM
# [3] = second compound 0.0316 µM, first compound 0.316 µM
# [4] = second compound 0.0316 µM, first compound 1 µM
# [5] = second compound 0.1 µM, first compound 0.0316 µM
# [6] = second compound 0.1 µM, first compound 0.1 µM
# [7] = second compound 0.1 µM, first compound 0.316 µM
# [8] = second compound 0.1 µM, first compound 1 µM
# [9] = second compound 0.316 µM, first compound 0.0316 µM
# [10] = second compound 0.316 µM, first compound 0.1 µM
# [11] = second compound 0.316 µM, first compound 0.316 µM
# [12] = second compound 0.316 µM, first compound 1 µM
# [13] = second compound 1 µM, first compound 0.0316 µM
# [14] = second compound 1 µM, first compound 0.1 µM
# [15] = second compound 1 µM, first compound 0.316 µM
# [16] = second compound 1 µM, first compound 1 µM
# [17] = second compound 3.16 µM, first compound 0.0316 µM
# [18] = second compound 3.16 µM, first compound 0.1 µM
# [19] = second compound 3.16 µM, first compound 0.316 µM
# [20] = second compound 3.16 µM, first compound 1 µM
# [21] = second compound 10 µM, first compound 0.0316 µM
# [22] = second compound 10 µM, first compound 0.1 µM
# [23] = second compound 10 µM, first compound 0.316 µM
# [24] = second compound 10 µM, first compound 1 µM
# 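Throughout, for viability, T/C: spheroids exposed to agents for seven days before readout; 100% = DMSO vehicle control wells.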
smiles,measurement,setting,value
CC(=O)OC12COC1CC(O)C1(C)C(=O)C(O)C3=C(C)C(OC(=O)C(O)C(NC(=O)OC(C)(C)C)c4ccccc4)CC(O)(C(OC(=O)c4ccccc4)C21)C3(C)C (centres undefined) + C#Cc1c(F)ccc2cc(O)cc(-c3ncc4c(N5CC6CCC(C5)N6)nc(OCC56CCCN5CC(F)C6)nc4c3F)c12,IC50,second compound 0.0316 µM,< 31.6 nM
same,IC50,second compound 0.1 µM,< 31.6 nM
same,IC50,second compound 0.316 µM,< 31.6 nM
same,IC50,second compound 1 µM,< 31.6 nM
same,IC50,second compound 3.16 µM,< 31.6 nM
same,IC50,second compound 10 µM,< 31.6 nM
same,"viability, T/C",[1],33.1%
same,"viability, T/C",[2],32.1%
same,"viability, T/C",[3],39.9%
same,"viability, T/C",[4],48.3%
same,"viability, T/C","second compound 0.0316 µM, first compound 3.16 µM",67.1%
same,"viability, T/C","second compound 0.0316 µM, first compound 10 µM",67.7%
same,"viability, T/C",[5],31.8%
same,"viability, T/C",[6],31.7%
same,"viability, T/C",[7],36.1%
same,"viability, T/C",[8],49.5%
same,"viability, T/C","second compound 0.1 µM, first compound 3.16 µM",74.5%
same,"viability, T/C","second compound 0.1 µM, first compound 10 µM",81.8%
same,"viability, T/C",[9],32.3%
same,"viability, T/C",[10],30.5%
same,"viability, T/C",[11],38.8%
same,"viability, T/C",[12],53.4%
same,"viability, T/C","second compound 0.316 µM, first compound 3.16 µM",67.4%
same,"viability, T/C","second compound 0.316 µM, first compound 10 µM",82.8%
same,"viability, T/C",[13],30.7%
same,"viability, T/C",[14],35%
same,"viability, T/C",[15],41.3%
same,"viability, T/C",[16],45.5%
same,"viability, T/C","second compound 1 µM, first compound 3.16 µM",75.1%
same,"viability, T/C","second compound 1 µM, first compound 10 µM",78.9%
same,"viability, T/C",[17],32.1%
same,"viability, T/C",[18],34.4%
same,"viability, T/C",[19],37.5%
same,"viability, T/C",[20],49.6%
same,"viability, T/C","second compound 3.16 µM, first compound 3.16 µM",63.2%
same,"viability, T/C","second compound 3.16 µM, first compound 10 µM",73.9%
same,"viability, T/C",[21],35.3%
same,"viability, T/C",[22],28.9%
same,"viability, T/C",[23],36.4%
same,"viability, T/C",[24],46.5%
same,"viability, T/C","second compound 10 µM, first compound 3.16 µM",66.4%
same,"viability, T/C","second compound 10 µM, first compound 10 µM",69.7%
Nc1ccn(C2OC(CO)C(O)C2(F)F)c(=O)n1 (centres undefined) + C#Cc1c(F)ccc2cc(O)cc(-c3ncc4c(N5CC6CCC(C5)N6)nc(OCC56CCCN5CC(F)C6)nc4c3F)c12,IC50,second compound 0.0316 µM,17.6 nM
same,IC50,second compound 0.1 µM,19.3 nM
same,IC50,second compound 0.316 µM,17.1 nM
same,IC50,second compound 1 µM,19.2 nM
same,IC50,second compound 3.16 µM,16.5 nM
same,IC50,second compound 10 µM,17.6 nM
same,"viability, T/C","second compound 0.0316 µM, first compound 0.00316 µM",102%
same,"viability, T/C","second compound 0.0316 µM, first compound 0.01 µM",65.1%
same,"viability, T/C",[1],35.3%
same,"viability, T/C",[2],21.2%
same,"viability, T/C",[3],18.6%
same,"viability, T/C",[4],22.1%
same,"viability, T/C","second compound 0.1 µM, first compound 0.00316 µM",95%
same,"viability, T/C","second compound 0.1 µM, first compound 0.01 µM",71.7%
same,"viability, T/C",[5],34.3%
same,"viability, T/C",[6],18.9%
same,"viability, T/C",[7],20.5%
same,"viability, T/C",[8],20.6%
same,"viability, T/C","second compound 0.316 µM, first compound 0.00316 µM",99.1%
same,"viability, T/C","second compound 0.316 µM, first compound 0.01 µM",65.1%
same,"viability, T/C",[9],33.7%
same,"viability, T/C",[10],17.9%
same,"viability, T/C",[11],20.2%
same,"viability, T/C",[12],20.1%
same,"viability, T/C","second compound 1 µM, first compound 0.00316 µM",99.2%
same,"viability, T/C","second compound 1 µM, first compound 0.01 µM",70.4%
same,"viability, T/C",[13],35.6%
same,"viability, T/C",[14],16.4%
same,"viability, T/C",[15],15.3%
same,"viability, T/C",[16],20.8%
same,"viability, T/C","second compound 3.16 µM, first compound 0.00316 µM",103%
same,"viability, T/C","second compound 3.16 µM, first compound 0.01 µM",65.6%
same,"viability, T/C",[17],29.9%
same,"viability, T/C",[18],19.8%
same,"viability, T/C",[19],17.5%
same,"viability, T/C",[20],18.8%
same,"viability, T/C","second compound 10 µM, first compound 0.00316 µM",102%
same,"viability, T/C","second compound 10 µM, first compound 0.01 µM",67.2%
same,"viability, T/C",[21],33.5%
same,"viability, T/C",[22],15.2%
same,"viability, T/C",[23],18.3%
same,"viability, T/C",[24],19.2%
